Blank lines part the entries; values can stand above or below the compound they belong to.
Experiments:
[1] = tested on: Egr1-EGFP reporter gene in primary cultured cortical neurons; test: Egr1 reporter gene assay; format: cell-based, mouse; details: 24 hour treatments
[2] = tested on: Grn (granulin); details: ref Cenik et al., 2011; cited from earlier work
[3] = tested on: acetylated histone H3, H4, H2A, H2B in cultured primary mouse neurons; test: Western blotting of neuronal histone acetylation; format: cell-based; details: 1 μM, 24 hrs
[4] = Crebinostat concentration in brain and plasma; format: in vivo, mouse; details: single IP dose 25 mg/kg
[5] = tested on: C57BL/6J mice; test: Open field locomotion prior to footshock; format: in vivo, mouse; details: 25 mg/kg IP daily, 10 days
[6] = tested on: hippocampal acetylation of H4K12 and H3K9; test: Western blot of hippocampal histone acetylation after IP injection; format: in vivo, mouse; details: one hour after IP injection
[7] = tested on: 6X-CRE-β-galactosidase CREB reporter gene in PC12 cells; test: CREB reporter gene assay; format: cell-based; details: for effect on forskolin induction of the CREB reporter gene: in the presence of forskolin (10 μM), 4 hr, library compounds 20 μM
[8] = tested on: mouse forebrain primary cultured neurons; test: Transcriptome profiling; format: cell-based; details: 1 μM, 24 hrs
[9] = tested on: mouse forebrain primary cultured neurons; test: Quantitative RT-PCR assays of gene expression; format: cell-based; details: 1 μM
[10] = tested on: Homer1 expression in cortical neurons; test: NanoString nCounter gene expression assay; format: cell-based, mouse; details: crebinostat 1 μM 24 hours, BDNF 20 ng/ml last 6 hours
[11] = tested on: mouse primary forebrain cultures; test: Synapsin I punctae imaging along Map2-positive dendrites; format: cell-based; details: 1 μM, 24 hr
[12] = tested on: mouse primary forebrain cultures; test: Toxicity in primary neuronal cultures on coverslips; format: cell-based; details: 1 μM, 24 hrs
[13] = tested on: AcH4K12 in mouse primary forebrain cultures; test: High resolution neuronal histone acetylation imaging; format: cell-based; details: 1 μM, 24 hrs
[14] = biological target: T1, recombinant HDAC1 (Homo sapiens, UniProt Q13547); details: more potent than SAHA
T1 sequence (Q13547 whole entry): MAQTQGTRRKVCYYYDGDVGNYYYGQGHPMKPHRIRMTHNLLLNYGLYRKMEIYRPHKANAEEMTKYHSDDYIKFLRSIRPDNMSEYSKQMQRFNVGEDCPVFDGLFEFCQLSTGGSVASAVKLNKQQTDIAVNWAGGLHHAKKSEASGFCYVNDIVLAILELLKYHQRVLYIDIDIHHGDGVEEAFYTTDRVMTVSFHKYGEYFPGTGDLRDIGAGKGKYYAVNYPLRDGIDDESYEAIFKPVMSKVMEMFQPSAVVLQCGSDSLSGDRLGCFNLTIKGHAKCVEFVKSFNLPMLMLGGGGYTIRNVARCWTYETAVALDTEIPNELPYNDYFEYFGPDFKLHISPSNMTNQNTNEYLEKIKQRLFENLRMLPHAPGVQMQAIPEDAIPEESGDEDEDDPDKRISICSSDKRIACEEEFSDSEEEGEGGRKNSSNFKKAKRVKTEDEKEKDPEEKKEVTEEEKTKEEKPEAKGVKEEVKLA

[15] = biological target: T1, recombinant HDAC1; test: biochemical
[16] = biological target: recombinant HDAC2 (Homo sapiens, UniProt Q92769); test: In vitro HDAC enzymatic assay, HDAC2
Chain of recombinant HDAC2 (Q92769 whole entry): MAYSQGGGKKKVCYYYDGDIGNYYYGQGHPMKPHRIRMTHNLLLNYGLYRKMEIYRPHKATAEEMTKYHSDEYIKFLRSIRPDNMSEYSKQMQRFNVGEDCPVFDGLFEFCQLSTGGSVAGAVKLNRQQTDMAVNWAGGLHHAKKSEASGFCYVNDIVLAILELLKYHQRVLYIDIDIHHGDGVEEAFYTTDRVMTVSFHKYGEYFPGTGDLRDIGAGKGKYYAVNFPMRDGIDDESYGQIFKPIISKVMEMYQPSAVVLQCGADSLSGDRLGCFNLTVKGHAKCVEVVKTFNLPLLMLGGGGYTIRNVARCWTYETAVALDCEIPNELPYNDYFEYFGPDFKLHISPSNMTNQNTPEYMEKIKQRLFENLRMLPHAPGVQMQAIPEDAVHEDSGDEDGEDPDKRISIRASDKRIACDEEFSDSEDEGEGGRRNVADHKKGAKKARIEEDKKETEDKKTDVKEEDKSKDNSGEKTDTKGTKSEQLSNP

[17] = biological target: recombinant HDAC3 (Homo sapiens, UniProt O15379); test: In vitro HDAC enzymatic assay, HDAC3
Chain of recombinant HDAC3 (O15379 whole entry): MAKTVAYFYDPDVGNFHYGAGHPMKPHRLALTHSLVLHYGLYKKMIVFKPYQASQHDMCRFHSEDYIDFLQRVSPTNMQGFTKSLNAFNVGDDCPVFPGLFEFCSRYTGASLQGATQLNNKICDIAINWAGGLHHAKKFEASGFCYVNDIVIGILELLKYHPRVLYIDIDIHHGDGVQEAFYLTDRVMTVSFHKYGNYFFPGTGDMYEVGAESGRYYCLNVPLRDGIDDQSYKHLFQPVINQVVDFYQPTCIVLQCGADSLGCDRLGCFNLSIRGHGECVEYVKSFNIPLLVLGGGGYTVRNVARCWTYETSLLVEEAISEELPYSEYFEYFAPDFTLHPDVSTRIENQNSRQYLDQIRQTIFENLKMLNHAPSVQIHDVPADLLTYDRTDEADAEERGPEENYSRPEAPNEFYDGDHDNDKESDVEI
Chain of recombinant HDAC3 (Q9Y618 395-489 partner limits assumed): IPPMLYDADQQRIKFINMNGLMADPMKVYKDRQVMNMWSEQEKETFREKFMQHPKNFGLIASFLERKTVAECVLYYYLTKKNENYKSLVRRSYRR

[18] = biological target: recombinant HDAC4 (Homo sapiens, UniProt P56524); test: In vitro HDAC enzymatic assay, HDAC4; details: read-out: IC50 for inhibition of enzymatic activity of HDAC4; Class IIa
Chain of recombinant HDAC4 (P56524 whole entry): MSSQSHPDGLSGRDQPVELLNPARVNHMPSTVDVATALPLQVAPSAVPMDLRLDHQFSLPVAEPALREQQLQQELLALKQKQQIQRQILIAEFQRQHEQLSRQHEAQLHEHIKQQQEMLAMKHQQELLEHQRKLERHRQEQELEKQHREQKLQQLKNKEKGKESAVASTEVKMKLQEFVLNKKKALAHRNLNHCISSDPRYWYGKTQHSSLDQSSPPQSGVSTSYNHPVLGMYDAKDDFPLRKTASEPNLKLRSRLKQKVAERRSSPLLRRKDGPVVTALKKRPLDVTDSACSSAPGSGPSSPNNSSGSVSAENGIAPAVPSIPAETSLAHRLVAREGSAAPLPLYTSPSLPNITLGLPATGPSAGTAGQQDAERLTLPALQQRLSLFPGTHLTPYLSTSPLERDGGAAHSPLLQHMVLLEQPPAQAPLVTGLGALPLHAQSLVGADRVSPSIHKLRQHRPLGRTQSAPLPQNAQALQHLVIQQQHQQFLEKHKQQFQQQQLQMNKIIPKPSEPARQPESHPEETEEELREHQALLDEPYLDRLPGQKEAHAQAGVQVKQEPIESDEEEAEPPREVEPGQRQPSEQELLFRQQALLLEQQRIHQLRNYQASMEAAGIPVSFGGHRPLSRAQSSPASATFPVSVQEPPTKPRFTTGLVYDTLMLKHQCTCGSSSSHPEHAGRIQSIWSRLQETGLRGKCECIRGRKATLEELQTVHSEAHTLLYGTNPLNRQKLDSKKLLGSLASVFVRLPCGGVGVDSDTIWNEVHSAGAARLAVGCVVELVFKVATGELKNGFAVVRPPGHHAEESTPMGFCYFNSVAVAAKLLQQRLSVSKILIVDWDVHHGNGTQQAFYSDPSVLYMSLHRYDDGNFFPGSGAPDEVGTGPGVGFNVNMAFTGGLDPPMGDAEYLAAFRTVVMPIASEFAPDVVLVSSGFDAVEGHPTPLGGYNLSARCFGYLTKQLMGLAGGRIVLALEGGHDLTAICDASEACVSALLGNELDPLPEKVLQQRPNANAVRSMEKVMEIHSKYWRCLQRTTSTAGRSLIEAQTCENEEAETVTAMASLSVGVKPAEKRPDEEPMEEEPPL

[19] = biological target: recombinant HDAC5 (Homo sapiens, UniProt Q9UQL6); test: In vitro HDAC enzymatic assay, HDAC5; details: read-out: IC50 for inhibition of enzymatic activity of HDAC5; Class IIa
Chain of recombinant HDAC5 (Q9UQL6 whole entry): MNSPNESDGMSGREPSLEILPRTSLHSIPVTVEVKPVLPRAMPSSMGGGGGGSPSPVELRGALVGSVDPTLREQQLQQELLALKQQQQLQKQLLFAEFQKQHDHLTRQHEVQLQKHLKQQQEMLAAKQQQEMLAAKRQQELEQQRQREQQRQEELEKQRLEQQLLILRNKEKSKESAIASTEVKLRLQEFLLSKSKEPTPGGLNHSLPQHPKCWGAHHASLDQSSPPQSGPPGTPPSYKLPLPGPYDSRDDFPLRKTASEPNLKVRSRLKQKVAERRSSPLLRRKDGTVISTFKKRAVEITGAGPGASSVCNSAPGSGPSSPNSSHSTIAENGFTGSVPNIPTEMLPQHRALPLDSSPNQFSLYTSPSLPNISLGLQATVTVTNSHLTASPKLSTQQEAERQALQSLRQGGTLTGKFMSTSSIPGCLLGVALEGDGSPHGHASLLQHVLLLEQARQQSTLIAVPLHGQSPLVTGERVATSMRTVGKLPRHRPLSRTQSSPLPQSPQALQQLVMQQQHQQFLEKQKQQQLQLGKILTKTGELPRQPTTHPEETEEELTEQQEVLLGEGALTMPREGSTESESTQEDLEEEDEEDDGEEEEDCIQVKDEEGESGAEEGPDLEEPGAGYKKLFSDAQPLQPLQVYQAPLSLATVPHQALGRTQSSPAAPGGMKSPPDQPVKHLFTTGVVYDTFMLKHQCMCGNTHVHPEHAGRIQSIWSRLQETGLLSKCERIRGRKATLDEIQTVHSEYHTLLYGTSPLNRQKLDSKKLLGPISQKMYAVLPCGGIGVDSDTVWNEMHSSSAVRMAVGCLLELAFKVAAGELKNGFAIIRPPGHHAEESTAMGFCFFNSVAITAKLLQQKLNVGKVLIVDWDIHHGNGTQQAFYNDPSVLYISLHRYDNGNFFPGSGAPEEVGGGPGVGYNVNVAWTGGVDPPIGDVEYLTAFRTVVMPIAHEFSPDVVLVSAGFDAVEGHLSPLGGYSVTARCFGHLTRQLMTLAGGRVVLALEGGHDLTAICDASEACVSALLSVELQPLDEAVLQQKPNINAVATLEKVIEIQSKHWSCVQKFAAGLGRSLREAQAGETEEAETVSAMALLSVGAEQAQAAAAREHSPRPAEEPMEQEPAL

[20] = biological target: T2, recombinant HDAC7 (Homo sapiens, UniProt Q8WUI4); test: In vitro HDAC enzymatic assay, HDAC7; details: read-out: IC50 for inhibition of enzymatic activity of HDAC7; Class IIa
T2 sequence (Q8WUI4 1-952): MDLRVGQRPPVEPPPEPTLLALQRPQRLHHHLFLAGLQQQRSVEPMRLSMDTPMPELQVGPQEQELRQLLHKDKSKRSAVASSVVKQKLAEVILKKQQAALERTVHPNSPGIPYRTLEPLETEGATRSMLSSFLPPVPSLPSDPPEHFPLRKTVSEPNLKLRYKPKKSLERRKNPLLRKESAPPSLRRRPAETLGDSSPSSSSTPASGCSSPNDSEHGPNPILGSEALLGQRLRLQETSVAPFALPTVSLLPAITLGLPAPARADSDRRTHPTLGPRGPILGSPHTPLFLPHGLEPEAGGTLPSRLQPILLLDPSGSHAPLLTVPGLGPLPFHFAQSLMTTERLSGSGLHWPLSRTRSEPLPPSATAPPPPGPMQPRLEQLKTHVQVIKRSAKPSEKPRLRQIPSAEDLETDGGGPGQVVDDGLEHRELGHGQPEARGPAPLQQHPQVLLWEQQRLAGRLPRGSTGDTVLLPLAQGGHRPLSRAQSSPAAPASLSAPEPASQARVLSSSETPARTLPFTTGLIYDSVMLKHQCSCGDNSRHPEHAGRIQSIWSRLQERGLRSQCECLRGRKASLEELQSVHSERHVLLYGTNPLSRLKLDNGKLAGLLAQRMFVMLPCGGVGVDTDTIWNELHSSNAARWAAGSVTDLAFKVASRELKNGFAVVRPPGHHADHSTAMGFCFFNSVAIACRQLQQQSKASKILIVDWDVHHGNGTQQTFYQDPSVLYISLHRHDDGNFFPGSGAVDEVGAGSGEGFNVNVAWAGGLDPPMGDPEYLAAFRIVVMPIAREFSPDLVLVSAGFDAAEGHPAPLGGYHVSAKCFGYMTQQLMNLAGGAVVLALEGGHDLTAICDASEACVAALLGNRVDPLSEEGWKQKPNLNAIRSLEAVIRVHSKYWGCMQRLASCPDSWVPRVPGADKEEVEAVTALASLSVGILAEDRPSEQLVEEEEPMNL

[21] = biological target: recombinant HDAC9 (Homo sapiens, UniProt Q9UKV0); test: In vitro HDAC enzymatic assay, HDAC9; details: read-out: IC50 for inhibition of enzymatic activity of HDAC9; Class IIa
Chain of recombinant HDAC9 (Q9UKV0 whole entry): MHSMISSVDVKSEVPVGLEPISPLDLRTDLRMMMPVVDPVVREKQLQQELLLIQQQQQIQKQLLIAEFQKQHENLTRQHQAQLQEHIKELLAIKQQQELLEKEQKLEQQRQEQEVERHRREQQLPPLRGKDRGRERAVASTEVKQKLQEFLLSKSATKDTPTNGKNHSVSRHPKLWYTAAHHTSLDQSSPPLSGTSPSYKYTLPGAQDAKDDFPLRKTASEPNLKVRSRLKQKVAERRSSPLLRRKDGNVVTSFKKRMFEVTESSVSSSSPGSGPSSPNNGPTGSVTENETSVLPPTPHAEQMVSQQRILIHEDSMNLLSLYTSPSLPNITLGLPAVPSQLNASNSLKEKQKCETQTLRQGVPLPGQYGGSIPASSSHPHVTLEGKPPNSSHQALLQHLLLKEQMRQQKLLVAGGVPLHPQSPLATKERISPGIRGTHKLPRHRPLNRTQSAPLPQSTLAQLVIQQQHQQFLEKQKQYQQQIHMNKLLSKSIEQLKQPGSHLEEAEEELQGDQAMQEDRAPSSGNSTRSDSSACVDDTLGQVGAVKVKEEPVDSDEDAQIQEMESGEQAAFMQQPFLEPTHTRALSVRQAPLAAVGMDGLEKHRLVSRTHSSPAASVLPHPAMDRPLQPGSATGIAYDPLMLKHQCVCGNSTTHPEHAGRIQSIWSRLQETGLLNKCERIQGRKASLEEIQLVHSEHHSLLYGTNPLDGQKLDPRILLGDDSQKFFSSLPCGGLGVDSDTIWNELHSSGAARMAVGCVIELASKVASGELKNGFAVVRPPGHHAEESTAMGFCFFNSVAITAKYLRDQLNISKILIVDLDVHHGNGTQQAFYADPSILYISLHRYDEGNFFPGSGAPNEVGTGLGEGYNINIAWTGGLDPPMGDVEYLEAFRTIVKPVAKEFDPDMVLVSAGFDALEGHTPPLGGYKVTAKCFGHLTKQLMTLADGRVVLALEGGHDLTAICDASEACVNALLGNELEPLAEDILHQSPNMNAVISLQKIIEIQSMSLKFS

[22] = biological target: T3, recombinant HDAC6 (Homo sapiens, UniProt Q9UBN7); test: In vitro HDAC enzymatic assay, HDAC6
T3 sequence (Q9UBN7 1-1215): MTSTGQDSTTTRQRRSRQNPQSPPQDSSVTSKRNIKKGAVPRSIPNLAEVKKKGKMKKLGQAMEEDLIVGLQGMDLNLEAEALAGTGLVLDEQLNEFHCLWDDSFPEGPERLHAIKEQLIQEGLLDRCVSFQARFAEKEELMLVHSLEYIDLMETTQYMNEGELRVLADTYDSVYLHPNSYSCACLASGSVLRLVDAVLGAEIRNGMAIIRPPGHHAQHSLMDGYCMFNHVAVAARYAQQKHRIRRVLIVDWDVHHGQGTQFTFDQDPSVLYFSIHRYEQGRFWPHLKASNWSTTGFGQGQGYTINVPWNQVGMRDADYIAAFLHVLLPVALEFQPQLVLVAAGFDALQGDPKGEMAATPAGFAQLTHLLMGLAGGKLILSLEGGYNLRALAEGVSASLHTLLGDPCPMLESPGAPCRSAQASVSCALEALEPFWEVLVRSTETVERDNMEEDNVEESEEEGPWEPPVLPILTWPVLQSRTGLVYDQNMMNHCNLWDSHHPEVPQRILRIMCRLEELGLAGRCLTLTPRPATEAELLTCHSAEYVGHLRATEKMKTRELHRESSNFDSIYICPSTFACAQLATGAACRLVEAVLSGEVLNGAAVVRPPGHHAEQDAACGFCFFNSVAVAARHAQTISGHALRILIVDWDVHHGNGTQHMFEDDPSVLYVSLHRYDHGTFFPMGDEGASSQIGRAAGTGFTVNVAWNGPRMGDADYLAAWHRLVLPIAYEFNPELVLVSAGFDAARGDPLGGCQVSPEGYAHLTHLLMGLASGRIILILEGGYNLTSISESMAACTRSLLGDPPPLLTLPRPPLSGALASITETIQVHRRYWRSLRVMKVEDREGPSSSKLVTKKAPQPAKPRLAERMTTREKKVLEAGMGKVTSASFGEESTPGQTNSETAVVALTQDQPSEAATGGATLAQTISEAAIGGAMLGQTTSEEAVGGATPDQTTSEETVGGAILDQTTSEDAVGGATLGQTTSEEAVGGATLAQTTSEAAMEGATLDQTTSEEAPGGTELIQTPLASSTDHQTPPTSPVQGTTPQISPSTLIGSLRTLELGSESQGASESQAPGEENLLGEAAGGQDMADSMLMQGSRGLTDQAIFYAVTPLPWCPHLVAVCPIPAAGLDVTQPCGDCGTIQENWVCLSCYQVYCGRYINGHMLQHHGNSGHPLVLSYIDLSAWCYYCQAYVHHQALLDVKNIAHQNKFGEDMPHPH

[23] = tested on: AcH4K12 in mouse primary cultured forebrain neurons; test: Neuronal histone acetylation immunofluorescence assay, AcH4K12; details: AcH4K12 and AcH3K9; more potent than SAHA

Structure (SMILES): O=C(CCCCCCC(=O)Nc1ccccc1)NO [SAHA, suberoylanilide hydroxamic acid, reference compound]
- Egr1-EGFP reporter gene activity [1]: induced
- expression of Grn (granulin) in cell lines [2]: upregulate

- half-life ([4]; C57BL/6, mouse, brain, ip, 25 mg/kg, half-life (T1/2), mouse brain): 43.2 min
- time of Cmax in brain post-injection ([4]; mouse): 30 min
- exploratory activity immediately prior to foot shock versus vehicle [5]: no significant differences
- potency relative to SAHA for inhibition of class I HDACs 1-3 [14]: approximately 10 fold
- IC50 [15]: 0.7 ± 0.04 nM
- IC50 [16]: 1 ± 0.08 nM
- IC50 [17]: 2 ± 0.3 nM
- IC50 [18]: > 2000 nM
- IC50 [19]: > 2000 nM
- IC50 [20]: > 2000 nM
- IC50 [21]: > 2000 nM
- IC50 [22]: 9.3 ± 0.6 nM
Structure (SMILES): O=C(CCCCCC(=O)NN=Cc1ccc(-c2ccccc2)cc1)NO [crebinostat, 7-(2-([1,1′-biphenyl]-4-ylmethylene)hydrazinyl)-N-hydroxy-7-oxoheptanamide]
- acetylation of histone H3, H4, H2A and H2B (western blot) [3]: strong increases
- total hippocampal acetylation of H4K12 and H3K9 [6]: not statistically significant
- effect on forskolin induction of the CREB reporter gene [7]: strong activation of the reporter only in the presence of forskolin
- Egr1-EGFP reporter gene activity [1]: induced
- Fold upregulation (Illumina array) Aldh2 [8]: 2.0 fold
- Fold upregulation (Illumina array) Sdcbp [8]: 2.2 fold
- Grn mRNA expression ([9]; 24 hours): upregulate
- Hspa1b (Hsp70) mRNA expression ([9]; 24 hours): upregulated
- Mapt mRNA expression ([9]; 24 hours): downregulated
- Bdnf mRNA expression ([9]; 24 hours, Bdnf transcript IV): upregulated
- Fold upregulation (RT-PCR) Aldh2 ([9]; 24 hrs, normalized to Gapdh): 2.3 fold
- Fold upregulation (RT-PCR) Egr1 ([9]; 24 hrs, normalized to Gapdh): 3.9 fold
- Fold upregulation (RT-PCR) Pik3c3 ([9]; 24 hrs, normalized to Gapdh): 2.2 fold
- Fold upregulation (RT-PCR) Sdcbp ([9]; 24 hrs, normalized to Gapdh): 2.3 fold
- regulation of Homer1 expression together with BDNF stimulation [10]: synergistic
- increase in dendritic synapsin I punctae density [11]: ~2 fold
- synapsin I punctae size or staining intensity [11]: did not alter
- total dendrite length per image [11]: did not alter
- toxicity in neuronal cultures [12]: no detectable toxicity
- histone acetylation (AcH4K12) in cultures on glass coverslips [13]: robust increase
- potency relative to SAHA at inducing histone acetylation in neurons [23]: ~ 6 fold

Structure (SMILES): C=C[C@@]1(C)CC(=O)[C@]2(O)[C@@]3(C)[C@@H](O)CCC(C)(C)[C@@H]3[C@H](O)[C@H](OC(C)=O)[C@@]2(C)O1 [forskolin]
- induction of the CREB reporter gene ([7]; 10 μM, 4 hours, PC12 cells): ~ 4 fold

Structure (SMILES): CC(/C=C/C(=O)NO)=C\[C@@H](C)C(=O)c1ccc(N(C)C)cc1 [trichostatin A]
- effect on forskolin induction of the CREB reporter gene [7]: further enhanced
